Source: patent US11401294B2, “Co-crystal forms of a novobiocin analog and proline” (Reata Pharmaceuticals, Inc., priority 2018, dated 2022)
Where two headings read alike, the source gives them in different places. Marks after values point to notes of the source that are not given here.

Legend:
Hsp90 = details: Kusuma (2012) and Ma (2015); cited from earlier work
neurons = details: Kusuma (2012); cited from earlier work
in vivo = details: male, C57BL/6, mouse, po, 1000 mg/kg
Description: Blood samples for plasma isolation were collected at 0.25, 0.5, 1, 2, 4, 8, and 24 hours post-dose, using a separate group (n=5/group/time point) of mice for each time point, as summarized in Table 14 below. Plasma samples were analyzed for concentrations of 4a by LC/MS/MS methodology as described below.
4a was extracted from K3EDTA-fortified plasma samples using a protein precipitation method. In a well of a polypropylene microplate (96-well), 20 μL of a 2.5-ng/mL D3-4a (internal standard, IS) solution prepared in acetonitrile/H2O (1:1) was added, followed by addition of 20 μL of plasma sample. The plate was sealed with sealing tape (Phenomenex, AH0-7362) and gently mixed with a vortex-mixer for 1 minute. The solution was pipetted into a well of a polypropylene plate (96-well, 2 mL, Phenomenex, AH0-7194) that contained 500 μL of methanol. The plate was sealed and vortex-mixed for 5 minutes followed by centrifugation at 3000×g for 3 minutes at room temperature. A 300-μL aliquot of the supernatant was transferred to a new well that contained 300 μL of deionized water. After gentle mixing, the plate was sealed and placed in an LC autosampler maintained at 12° C., and a 10-μL aliquot was injected into an LC/MS/MS system for quantitative analysis of 4a.
Liquid chromatographic separation of 4a was achieved by a reversed-phase analytical column with mobile phase solution containing H2O, acetonitrile, and formic acid. The chromatographed analyte was detected by a Waters Xevo TQ-S triple quadrupole mass spectrometer operating in multiple-reaction-monitoring (MRM) mode. Chromatographed peak areas for quality control samples, calibration standards, and study samples were integrated using MassLynx software V4.1 (Waters Corp.).
Pharmacokinetic parameter estimates were obtained from non-compartmental analysis of the mean 4a plasma concentration-time data for each dose group using WinNonlin™ software version 6.3 (Pharsight Corp., Cary, N.C.). […] The time of the last measurable concentration was defined as the time after which 4a concentrations were below the limit of quantitation (BLQ) in the majority of animals for each dose group.

[1] = Systemic exposure to 4a after single oral gavage (suspension) or loose-filled capsule in monkeys (plasma LC/MS/MS, PK); type: in vivo; details: male, cynomolgus, cynomolgus monkey, oral gavage suspension 30 mg/kg, 0.25 hr, read-out: 4a Plasma Concentration, mean (±SD)
[2] = as above; type: in vivo, male cynomolgus monkeys; details: for AUC(0-t): read-out: AUC(0-t), mean (±SD); for Cmax: read-out: Cmax, mean (±SD); for Tmax: read-out: Tmax (median)
Description: Dosing of Material A accounted for the presence of proline on a weight basis. Blood samples for plasma isolation were collected at […], 0.5, 1, 2, 4, 8, 12, and 24 hours post-dose from each monkey.

[3] = male, cynomolgus, cynomolgus monkey, plasma, oral gavage suspension 30 mg/kg, read-out: 4a Plasma Concentration, mean (±SD)
[4] = male, cynomolgus, cynomolgus monkey, plasma, oral gavage suspension 30 mg/kg
[5] = male, cynomolgus, cynomolgus monkey, plasma, oral, capsule 50 mg, read-out: 4a Plasma Concentration, mean (±SD)
[6] = male, cynomolgus, cynomolgus monkey, plasma, oral, capsule 50 mg, BLQ values included as 1/2 LLOQ (0.200 ng/mL), read-out: 4a Plasma Concentration, mean (±SD)
[7] = male, cynomolgus, cynomolgus monkey, plasma, po, 50 mg capsule

Structure (SMILES): CO[C@@H]1[C@@H](O)[C@@H](O)C(Oc2ccc(CCNC(C)=O)c(-c3cccc(F)c3)c2)OC1(C)C (single isomer, unassigned) [Form 4]
- potency in Hsp70-independent inhibition of Hsp90 (Hsp90): excellent potency
- neuronal protective activity (neurons): high neuronal protective activity

Structure (SMILES): CO[C@@H]1[C@@H](O)[C@@H](O)[C@H](Oc2ccc(CCNC(C)=O)c(-c3cccc(F)c3)c2)OC1(C)C [amorphous 4a, N-(2-(5-(((2R,3R,4S,5R)-3,4-dihydroxy-5-methoxy-6,6-dimethyltetra-hydro-2H-pyran-2-yl)oxy)-3′-fluoro-[1,1′-biphenyl]-2-yl)ethyl)-acetamide]
- AUC(0-t) (in vivo): 2880 ng·h/mL
- Cmax (in vivo): 6760 ng/mL
- Tmax (in vivo): 15 min
- concentration at 0.5 h (in vivo): 3060 ± 1600 ng/mL
- concentration at 1 h (in vivo): 359 ± 140 ng/mL
- concentration at 2 h (in vivo): 80.7 ± 116 ng/mL
- concentration at 4 h (in vivo): 2.28 ± 0.92 ng/mL
- concentration at 8 h (in vivo): 4.01 ± 4.34 ng/mL
- concentration at […] [1]: 103 ± 71 ng/mL
- 4a Plasma Concentration, mean (±SD) ([2]; capsule 50 mg, 24 hr, BLQ values included as 1/2 LLOQ (0.200 ng/mL)): 6.11 ± 9.23^c ng/mL
- concentration at 0.5 h [2, 3]: 129 ± 92 ng/mL
- concentration at 1 h [2, 3]: 128 ± 56 ng/mL
- concentration at 2 h [2, 3]: 80.2 ± 26.4 ng/mL
- concentration at 4 h [2, 3]: 14.1 ± 5.5 ng/mL
- concentration at 8 h [2, 3]: 1.2 ± 0.45 ng/mL
- AUC(0-t) [2, 4]: 307 ± 96 ng·h/mL
- Cmax [2, 4]: 160 ± 78 ng/mL
- Tmax [2, 4]: 30 min
- concentration at […] ([2]; male, cynomolgus, cynomolgus monkey, plasma, oral, capsule 50 mg, 0.25 hr, read-out: 4a Plasma Concentration, mean (±SD)): 15.9 ± 12.9 ng/mL
- concentration at 0.5 h [2, 5]: 12.3 ± 5.5 ng/mL
- concentration at 1 h [2, 5]: 5.97 ± 0.95 ng/mL
- concentration at 2 h [2, 6]: 1.9 ± 1.89 ng/mL
- concentration at 4 h [2, 6]: 0.2 ng/mL
- concentration at 8 h [2, 6]: 0.951 ± 1.3 ng/mL
- concentration at 12 h ([2]; male, cynomolgus, cynomolgus monkey, plasma, oral, capsule 50 mg, 12 hr, BLQ values included as 1/2 LLOQ (0.200 ng/mL), read-out: 4a Plasma Concentration, mean (±SD)): 3.53 ± 5.78 ng/mL
- concentration at 24 h ([2]; male, cynomolgus, cynomolgus monkey, plasma, oral, loose-filled capsule 50 mg, 24 hours post-dose (secondary peak), read-out: mean (±SD) 4a plasma concentration): 6.11 ± 9.23 ng/mL
- AUC(0-t) [2, 7]: 81.6 ± 105 ng·h/mL
- Cmax [2, 7]: 19.7 ± 9.4 ng/mL
- Tmax [2, 7]: 15 min
- 4a Plasma Concentration, mean (±SD) ([2]; oral gavage suspension 30 mg/kg, 12 hr): BLQ^d
- 4a Plasma Concentration, mean (±SD) ([2]; oral gavage suspension 30 mg/kg, 24 hr): BLQ^d
